Where two headings read alike, the source gives them in different places.
Experiments:
AgORco+AgOR48 = molecular target: T1, AgORco+AgOR48 (Anopheles gambiae, UniProt Q7QCC7); test: Ca2+ imaging, HEK cells expressing AgORco+AgOR48; assay type: cell-based; details: for Orco + 48 Agonist % value Of VUAA1: relative to VUAA1; for Orco + 48 Agonist EC50 (given only relative to VUAA1): comparison with VUAA1 in words
T1 construct: expressed in transfected cells
T1 sequence (Q7QCC7 1-478): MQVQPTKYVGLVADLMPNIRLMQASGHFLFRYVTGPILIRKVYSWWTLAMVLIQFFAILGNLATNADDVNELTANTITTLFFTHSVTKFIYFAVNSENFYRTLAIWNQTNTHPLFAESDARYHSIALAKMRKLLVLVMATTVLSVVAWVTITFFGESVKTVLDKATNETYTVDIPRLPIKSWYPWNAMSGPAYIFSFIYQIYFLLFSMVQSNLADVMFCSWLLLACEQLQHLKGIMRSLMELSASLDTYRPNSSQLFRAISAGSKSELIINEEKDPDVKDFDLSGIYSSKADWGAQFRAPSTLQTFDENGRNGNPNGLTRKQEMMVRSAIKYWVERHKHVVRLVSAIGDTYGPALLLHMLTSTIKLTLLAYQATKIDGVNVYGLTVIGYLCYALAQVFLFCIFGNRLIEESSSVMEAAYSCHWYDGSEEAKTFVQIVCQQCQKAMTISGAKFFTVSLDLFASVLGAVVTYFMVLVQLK
Description: (§1) For transient transfections, ORs were cloned into pCl (Promega) and transfected into Flp-In™ T-REx™293 cell lines (Invitrogen) with Fu GENE6 (Roche). For the creation of stable cell lines, a cell culture expression vector capable of expressing Orco in conjunction with a conventional OR, pcDNA5/FRT/TO (Invitrogen) was modified to create two individual expression cassettes each under the control of a separate CMV/Tet02 promoter and a BGH poly-adenylation signal. Cells (as above) were transfected with the modified pcDNA5 plasmid along with POG44 (a Flp recombinase expression plasmid) to facilitate site-specific recombination. Stable cell lines were selected using Hygromycin B (Invitrogen). Cells were maintained in DMEM (Invitrogen) supplemented with 10% Tetracycline-free FBS (HyClone) and 15 ng/ml Blasticidin. For fluorometric Ca2+ measurements, stable lines expressing ORs of interest were seeded at 20,000 cells/well in black wall, poly-lysine coated 384-well cell culture plates (Greiner) and treated with […] tetracycline (Sigma) overnight to induce OR expression. Cells were dye-loaded with 1.8 uM Fluo-4 AM (Molecular Probes), 2.5 mM Probenecid (Molecular Probes) in assay buffer (20 mM HEPES, IX HBSS) for 45 minutes at 37° C. in 5% CO2 prior to each assay. Ca^2+ mobilization was assayed in an FDSS6000 (Hamamatsu). Baseline readings were taken for 20 s before automated addition of compound previously diluted in DMSO and assay buffer. Ratios were described as Maximum/Minimum response and each response was normalized to the maximum responder.
The ability of VUAA1 and its analogs to agonize representative ORco proteins from dipteran (Anopheles gambiae, AgORco), lepidopteran (Heliothis virescens, HvORco) and hymenopteran (Harpegnathos saltator, HsORco) orders was tested. […] Furthermore, the hierarchy of VUAA series potency was the same, irrespective of whether AgORco was co-expressed with AgOR65 or AgOR48 tuning ORs (FIG. 45). Without wishing to be bound by a particular theory, odorant ligands are thought to activate the complex via interaction with the tuning ORx and thereby affect ORco/ORx channel properties. […] These findings indicate VUAA-class OR co-modulators are viable compounds for further development as broad-spectrum insect control strategies, and VUAA4 can provide an advance in the pharmacological profile of VUAA-based compounds.

AgOrco+AgOR65 = molecular target: T2, AgOrco+AgOR65 (Anopheles gambiae, UniProt Q7QCC7); test: Ca2+ imaging, HEK cells expressing AgOrco+AgOR65; assay type: cell-based
T2 construct: expressed in transfected cells
T2 sequence (Q7QCC7 1-478): T1 sequence (Q7QCC7 1-478)
Description: as §1
For VUAA0, a single methyl from the para position of the aniline ring (compound VUAA0, FIG. 44) in the VUAA1 structure was removed. […] In VUAA0.5, unsaturation was introduced at the para position of the aniline ring (VUAA0.5, FIG. 44). […] In VUAA2, the ethyl group of the aniline ring in VUAA1 was replaced with an isopropyl group (VUAA2, FIG. 44).

Orco (AgORco) = molecular target: T3, Orco (AgORco) (Anopheles gambiae, UniProt Q7QCC7); test: Fluo-4 Ca2+ imaging, HEK293 cells expressing Orco alone; assay type: cell-based; details: for Emax: HEK293, read-out: Orco Agonist % value Of VUAA1
T3 construct: expressed in transfected cells
T3 sequence (Q7QCC7 1-478): T1 sequence (Q7QCC7 1-478)
Description: as §1

AgORco+AgOR10 = molecular target: T4, AgORco+AgOR10 (Anopheles gambiae, UniProt Q7QCC7); test: Fluo-4 Ca2+ imaging, HEK293 cells expressing Orco+AgOR10; assay type: cell-based; parameters: Orco 10 + Orco Angatonist % Reduction / Orco 10 + Orco Agonist % of control: concentration or dose not given beside the values; details: 10 + Orco; for Orco 10 + Orco Agonist, compared with VUAA1: qualitative, relative to VUAA1
T4 construct: expressed in transfected cells
T4 sequence (Q7QCC7 1-478): T1 sequence (Q7QCC7 1-478)
Description: as §1
As part of an ongoing, cell based calcium imaging screen for novel small-molecule modulators of AgORs that might disrupt olfactory-driven mosquito behaviors (Rinker et al manuscript in preparation), the inventors identified a number of compounds that activated AgOR10+AgORco-expressing human embryonic kidney (HEK293) cells. One of these compounds, (FIG. 3 A) denoted here as VUAA1, elicited activity consistent with allosteric agonism and was pursued for its novel properties. The identity of VUAA1 was verified using high-resolution mass spectrometry (HRMS) as well as ^1H and ^13C NMR. […] As AgORco was the common element among these functional responses, the inventors postulated that VUAA1 was a potential AgORco agonist.

[1] = test system: An. gambiae early 4th instar larvae; test: Larval mosquito movement assay (Daniovision-Ethovision); assay type: in vivo, Anopheles gambiae
Protocol: Next, the agonist activity of the VUAA compound class was tested to establish the involvement of AgORs in mediating larval ortho and klinokinesis in response to a series of semiochemicals using larval-stage An. gambiae mosquitoes. Mosquito larvae are aquatic, thus compounds can be delivered to individual early 4th instar larvae regardless of volatility. The assay currently utilizes 6-well plates and the Daniovision-Ethovision platform (Noldus Inc.) to simultaneously record and analyze 6 larvae, thereby providing modest rates of throughput and a high degree of reproducibility. In these assays, larval movements are automatically quantified over 5-minute period and control larvae consistently move the same number of times in the presence or absence of 0.1% DMSO (p=0.80, n=31) (FIGS. 42-43). Furthermore, the effects of the widely-used synthetic insect repellent N, N-diethyl-meta-toluamide (DEET) was tested and DEET was also observed to increase larval movements at and above a threshold concentration of 5×10^−4M (p=0.013, n=27) (FIGS. 42-43).

[2] = Orco + 48, agonist, read-out: Orco + 48 Agonist EC50
[3] = Orco + 48, read-out: Orco + 48 Agonist EC50
[4] = Orco alone, read-out: Orco Agonist EC50
[5] = heteromeric OR channels AgOrco+AgOR65, read-out: EC50
[6] = Orco + 65, read-out: Orco + 65 Agonist EC50

For `CCCCCCC1CCCC(=O)O1` [D-undecalactone, reference compound], the EC50 (AgORco+AgOR48; AgORco co-expressed with AgOR48, read-out: EC50) was 0.26 µM.
`CCc1ccc(NC(=O)CSc2nnc(-c3ccncc3)n2C2CC2)cc1` gave an EC50 (AgORco+AgOR48; [2]) of 13 µM.
With `CC(C)c1ccc(NC(=O)CSc2nnc(-c3ccncc3)n2C2CC2)cc1` [drawing 634] the EC50 (AgOrco+AgOR65; Orco + 65, agonist, read-out: Orco + 65 Agonist EC50) was 3.1 µM, the EC50 (AgORco+AgOR48; [2]) was 1.9 µM and the “Orco + 48 Agonist % value Of VUAA1” value (AgORco+AgOR48; Orco + 48, agonist) was 122%. It also gave an EC50 (Orco (AgORco); Orco alone, agonist) of 3.5 µM.
`CCCc1ccc(NC(=O)CSc2nnc(-c3ccncc3)n2C2CC2)cc1` was tested, and the “Orco + 48 Agonist % value Of VUAA1” value (AgORco+AgOR48; Orco + 48, agonist) was “<VUAA1” and the “Orco + 48 Agonist EC50 (relative to VUAA1)” value (AgORco+AgOR48; Orco + 48, agonist, stated in words relative to VUAA1) was “<VUAA1”.
For `CCCc1ccc(NC(=O)CSc2nnc(-c3cccnc3)n2CC)cc1`, the EC50 (AgORco+AgOR48; [3]) was 19.8 µM, the “Orco 10 + Orco Agonist, compared with VUAA1” value (AgORco+AgOR10; agonist mode) was “<VUAA1” and the Emax (Orco (AgORco)) was 87%. For the same compound, the EC50 (Orco (AgORco); [4]) was 63 µM.
Compound `C=CCc1ccc(O)c(OC)c1` [eugenol, reference compound] has an EC50 (AgOrco+AgOR65; [5]) of 0.5 µM.
In the case of `CCn1c(SCC(=O)Nc2ccc(C(C)C)cc2)nnc1-c1ccn(C)n1`, the “Orco Agonist % value Of VUAA1” value (Orco (AgORco); Orco alone, agonist, relative to VUAA1) is reported as “<VUAA1” and the “Orco Agonist EC50 (relative to VUAA1)” value (Orco (AgORco); Orco alone, agonist, stated in words relative to VUAA1) is reported as “<VUAA1”.
For `CCc1ccc2c(c1)CCN2C(=O)CSc1nnc(-c2cccnc2)n1CC`, the EC50 (AgORco+AgOR48; [3]) was 12.8 µM, the “Orco 10 + Orco Agonist, compared with VUAA1” value (AgORco+AgOR10; agonist mode) was “>VUAA1” and the Emax (Orco (AgORco)) was 121%. It also gave an EC50 (Orco (AgORco); [4]) of 35 µM.
For `CCCc1ccc(NC(=O)CSc2nnc(-c3ccncc3)n2CC)cc1`, the “Orco + 48 Agonist EC50 (given only relative to VUAA1)” value (AgORco+AgOR48; Orco + 48) was “<VUAA1” and the “Orco + 48 Agonist % value Of VUAA1” value (AgORco+AgOR48; Orco + 48) was “<VUAA1”.
With `CCn1c(SCC(=O)Nc2ccc(C)cc2)nnc1-c1cccnc1` [VUAA0, 2-((4-ethyl-5-(pyridin-3-yl)-4H-1,2,4-triazol-3-yl)thio)-N-(p-tolyl)acetamide] the EC50 (AgOrco+AgOR65; [5]) was 3400 µM and the “larval behavioral (movement) response” value ([1]; compared with DMSO controls or VUAA1) was “lower”.
`C=Cc1ccc(NC(=O)CSc2nnc(-c3ccncc3)n2CC)cc1` was tested, and the “Orco + 48 Agonist EC50 (given only relative to VUAA1)” value (AgORco+AgOR48; Orco + 48) was “<VUAA1” and the “Orco + 48 Agonist % value Of VUAA1” value (AgORco+AgOR48; Orco + 48) was “<VUAA1”.
In the case of `CCN(CC)C(=O)c1cccc(C)c1` [DEET, N, N-diethyl-meta-toluamide, reference compound], the “threshold concentration for increased larval movement” value ([1]; movements over 5-minute period) is reported as 500 µM.
For `CCn1c(SCC(=O)N2CCc3cc(Br)ccc32)nnc1-c1cccnc1`, the “Orco 10 + Orco Agonist, compared with VUAA1” value (AgORco+AgOR10; agonist mode) was “>VUAA1”, the “Orco 10 + Orco Angatonist % Reduction” value (AgORco+AgOR10; antagonist mode) was 59% and the Emax (Orco (AgORco)) was 59%. It also gave an EC50 (Orco (AgORco); [4]) of 55 µM.
With `CCc1ccc(NC(=O)CSc2nnc(-c3cccnc3)n2CC)cc1` [drawing 373] the EC50 (AgOrco+AgOR65; [6]) was 47 µM, the “Orco + 65 Agonist % value Of VUAA1” value (AgOrco+AgOR65; Orco + 65, relative to VUAA1) was 100% and the EC50 (AgORco+AgOR48; [3]) was 14 µM. For the same compound, the “Orco + 48 Agonist % value Of VUAA1” value (AgORco+AgOR48; Orco + 48) was 100%, the “Orco 10 + Orco Agonist % of control” value (AgORco+AgOR10; agonist mode) was 101.8% and the Emax (Orco (AgORco)) was 100%.
With `CCn1c(SCC(=O)Nc2ccc(C(C)C)cc2)nnc1-c1cccnc1` [drawing 381] the EC50 (AgOrco+AgOR65; [6]) was 9.6 µM, the EC50 (AgORco+AgOR48; [3]) was 9.9 µM and the “Orco + 48 Agonist % value Of VUAA1” value (AgORco+AgOR48; Orco + 48) was 109%. The “Orco 10 + Orco Agonist, compared with VUAA1” value (AgORco+AgOR10; agonist mode) was “>VUAA1”, the Emax (Orco (AgORco)) was 102% and the EC50 (Orco (AgORco); [4]) was 12.9 µM.

From patent US11484032B2, “Compositions for inhibition of insect sensing” (Vanderbilt University, priority 2011, dated 2022)
